Reference: patent US5374772A, “Substituted benzoic acids, inhibitors of phospholipases A2” (Hoffmann-LaRoche Inc., priority 1993, dated 1994)

Legend:
[1] = tested on: myeloperoxidase (MPO) activity, indicator of neutrophil infiltration; test: TPA mouse ear test, myeloperoxidase activity in ear punches; format: in vivo, male CD-1 mice; conditions: 0.3 mg topically
Method: (§1) For this test, 10 μl of 12-O-tetradecanoylphorbol-13-acetate (TPA), dissolved in a vehicle of pyridine: water: diethyl ether (20:5:75), was applied to the outside of the right ear of 3-4 week old male CD-1 mice (8 animals per group). The test compounds were dissolved in the same vehicle and 10 μl was applied to the inside of the same ear 30 minutes prior to the application of TPA. Ear punches (6 mm) were removed at 6 hours after TPA application, weighed and assayed for myeloperoxidase (MPO) activity as described in the following reference: P. P. Bradley, D. A. Priebat, R. D. Christensen and G. Rothstein, J. Invest. Dermatology 78, 206-209 (1982). The wet weight of the ear biopsy punches is a measure of the ear edema and the level of MPO activity in the ear punches is an indicator of neutrophil infiltration. The data are expressed as percent inhibition of drug-treatedanimals relative to the control group.

[2] = tested on: croton oil-induced mouse ear edema; test: Croton Oil Mouse Ear Edema Test; format: in vivo, male CD-1 mice; conditions: 1 mg topical, coapplied with croton oil, ear punch weight at 6 hours
Method: The croton oil-induced mouse ear edema test, a model of irritant-induced contact dermatitis, has been used for evaluation of the PLA2 inhibitors by the topical route of administration. This test was carried out as described in the following references:
The major active ingredient in croton oil is the tumor promoter 12-O-tetradecanoylphorbol-13-acetate (TPA) and the topical application of TPA to mouse skin has been reported to cause an increase in epidermal PGE2 production as well as an increase in epidermal cell membrane PLA2 activity. Indomethacin, an inhibitor of prostaglandin synthesis, prevented the TPA-mediated increase in epidermal PGE2 levels as well as the TPA-mediated induction of epidermal cell ornithine decarboxylase. Furthermore, the application of PGE2 to mouse skin countered the inhibitory effect of indomethacin upon TPA-stimulated cellular proliferation.
Twenty five μl of a 1% croton oil solution [dissolved in a mixture of pyridine/water/diethyl ether at a ratio of 5/20/75 (croton oil vehicle)] are applied to the outer side of the right ear of 3-4 week old male CD-1 mice (8 animals per group). The test compounds are dissolved directly in the 1% croton oil solution at various concentrations and coapplied. Control animals receive 25 μl of croton oil vehicle on the right ear. Biopsy punches are removed at 6 hours from the fight ear of the animals using a 6 mm skin trephine (Roboz, Washington, D.C.) and the wet weight of the ear punches is determined. The weight of the biopsy punches is a measure of ear inflammation, primarily edema. The data are expressed as percent inhibition relative to control groups.
Statistical analysis of the mean edema values of the control versus the treated groups is performed using Student's t-test. The significance of changes from the mean value for vehicle-treated (control) animals in the following Tables is indicated as follows: *p<0.05, **p<0.01, ***p<0.005,ns/not significant.

[3] = molecular target: T1, HSF-PLA2 (extracellular PLA2 obtained from human synovial fluid) (Homo sapiens, UniProt P14555); test: Assay for Inhibition of HSF-PLA2 In Vitro; format: biochemical; conditions: given as 50 % inhibition at the given concentration; 14C-oleate-labelled E. coli substrate, pH 7.3, 37° C., 30 minutes; read-out: % Inhib of HSF-PLA2: 50 (concentration) = IC50 (μM concentration that produces 50% inhibition of PLA2 activity)
T1 construct: extracellular enzyme obtained from human synovial fluid; from tissue; host or cells: pooled human synovial fluid (0.1% v/v in the assay)
T1 sequence (P14555 21-144): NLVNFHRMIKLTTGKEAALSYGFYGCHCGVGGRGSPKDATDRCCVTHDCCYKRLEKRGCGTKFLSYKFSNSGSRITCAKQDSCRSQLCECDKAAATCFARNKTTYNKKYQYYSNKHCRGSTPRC
Method: The PLA2 used in this test is the extracellular enzyme obtained from human synovial fluid (HSF-PLA2). The assay for HSF-PLA2 activity was a modification of the described method [Franson R., Dobrow R., Weiss, J., Elsbach P., and […]. Lipid Res., 19, 18-23 (1978)] which was conducted using [1-^14 C]-oleate-labelled E. coli substrate in excess at a final concentration of 20,000 dpm/ml. This was equivalent to 18.2 mM of cell membrane phospholipid phosphorus and 2×10^9 autoclaved E. coli/ml. The optimal conditions which were developed for the assay of HSF-PLA2 inhibitors are summarized as follows. […] The reaction was terminated by the addition of 2.5 ml of chloroform-methanol (1 to 1.5, v/v). The extraction of lipids from the stopped reaction mixture was conducted by the further additions of 0.5 ml of chloroform and 1 ml of water with mixing. […] The extracted lipid residue was redissolved in […] of a solution containing carrier oleic acid (0.2 mg/ml) of […]]). […] This TLC system rapidly (6 minutes) resolved the enzymatically released product, ^14 C-oleic acid, from the unreacted ^14 C-phospholipid substrate. The unsaturated lipids were located on the chromatogram by a brief exposure to iodine vapor. The oleic acid zone (Rf value 0.95) and phospholipid zone (origin) were cut out, chopped into small pieces, shaken with 2 ml of ethanol-water (80 to 20, v/v) and 15 ml of Aquasol and counted for radioactivity. A control incubation of substrate in the absence of HSF-PLA2 was performed in each experiment. The PLA2 activity of the human synovial fluid was corrected for this small control value. […] The specific activity of PLA2 in the pooled human synovial fluid under the optimal assay conditions was 49.2 nmoles [1-^14 C]-oleic acid released hour^-1 mg^-1. The IC50 (μM concentration of test compound that produces 50% inhibition of PLA2 activity) was determined for each test compound.

[4] = tested on: TPA-induced mouse ear edema; test: TPA Induced Mouse Ear Edema Test (ear punch weight); format: in vivo, male CD-1 mice; conditions: Mus musculus; 0.3 mg topical, 30 minutes prior to TPA, ear punch weight at 6 hours; read-out: % Inhib of TPA Mouse Ear Edema (0.3 mg)
Method: as §1, with “The TPA-induced mouse ear edema test, a model of irritant-induced contact dermatitis is described in the following reference: J. M. Young, B. M. Wagner and […]. Invest. Dermatology 80, 48-52 (1983). For” for “For”, “[…].” for “D. A. Priebat, R. D.”, “drug-[…]” for “drug-treatedanimals”

[5] = tested on: myeloperoxidase in colonic mucosa; test: Acetic Acid-Induced Colitis in Rats; format: in vivo, Male rats (Sprague-Dawley); conditions: 10 mg/kg orally
From the text: The rat acetic acid-induced colitis bioassay has been described by J. E. Krawisz, et al. in Amer. J. Proc. Gastro. Col. Rec. Surg. 31:11-18 (1980), and by P. Sharon and W. F. Stenson in Gastroenterology 88, 55-63 (1985) and 86, 453-460 (1984). Acetic acid-induced colitis is characterized by the movement of inflammatory cells into the colon, ,with the number of such cells in the mucosa being measured by the activity of myeloperoxidase, a marker enzyme for these cells. Positive desirable activity is indicated by a reduction in the high levels of myeloperoxidase caused by acetic acid. Male rats (Sprague-Dawley), weighing 150 to 300 g, were pretreated twice daily for two days with either the vehicle (water or dimethylsulfoxide) or the test inhibitor compound suspended in water or dissolved in dimethylsulfoxide and orally administered. […] The colonic mucosa was surgically removed and homogenized in an aqueous buffer at pH 6 with a Tissumizer or similar device and myeloperoxidase was measured in the homogenate using o-phenylenediamine as a chromagen, as described by A. Voller, D. E. Bidwell and A. Bartlett in "The Enzyme Linked Immunosorbent Assay (ELISA)", Zoological Soc., London, 1979, pages 29-30. […]

CCCCCCCCCCCCCCCCCCOc1cc(OCCCCCCc2cccc(O)c2O)cc(C(=O)O)c1 [Example 19, 3-[[6-(2,3-Dihydroxyphenyl)hexyl]oxy]-5-(octadecyloxy) benzoic acid]
% Inhib of myeloperoxidase in the TPA mouse ear test [1]: 94%
% Inhib of Croton Oil Mouse Ear Edema (1 mg) [2]: 76%
IC50 [3]: 1.1 µM
inhibition in vivo at 0.3 mg [4]: 55%
inhibition of myeloperoxidase (acetic acid-induced colitis) [5]: 56±17%
